In patent publication US20020128185A1, “Pharmaceutical compounds” (priority 1998, published 2002):
Entries after “also recorded” stand apart in the source; their conditions may differ. Blank lines part the entries; values can stand above or below the compound they belong to.

Tests used:
[1] = test system: A-10 rat aortic smooth muscle cells; assay: Immunofluorescence assays of the cytoskeleton in A-10 cells; assay type: cell-based; conditions: for Microtubule repolymerization after removal of drug: 100 nM for 24 hr
Experimental: A-10 cells are grown to near-confluency on glass coverslips in BME/10% FBS. Compounds in PBS are added to the indicated final concentrations and cells are incubated for an additional 24 hours. For the staining of microtubules and intermediate filaments, the cells are fixed with cold methanol and incubated with PBS containing 10% calf serum to block nonspecific binding sites. Cells are then incubated at 37° C for 60 min. with either monoclonal anti-S-tubulin or with monoclonal anti-vimentin at dilutions recommended by the manufacturer. Bound primary antibodies are subsequently visualized by a 45-minute incubation with fluorescein-conjugated rabbit antimouse IgG. The coverslips are mounted on microscope slides and the fluorescence patterns are examined and photographed using a Zeiss Photomicroscope Ill equipped with epifluorescence optics for fluorescein. […] PBS containing 100 nM TRITC-phalloidin is then added and the mixture is allowed to incubate for 45 min. at 37° C. The cells are washed rapidly with PBS before the coverslips are mounted and immediately photographed as described above.
After 24 hours, microtubules and vimentin intermediate filaments are visualized by indirect immunofluorescence and microfilaments are stained using TRITC-phalloidin. The morphological effects of each drug is examined.
After 24 hours, microtubule organization is examined by immunofluorescence as described above.
The cells are then washed and incubated in drug-free medium for periods of 1 hour or 24 hours. […] Cells are visualized for microtubule state after treatment with a cryptophycin compound of this invention at either 1 hour or 24 hours after removal of the cryptophycin compounds.

[2] = test system: SKVLB1 cells (vinblastine-resistant, P-glycoprotein-overexpressing sub-line of SKOV3); assay: Inhibition of growth of SKVLB1 cells; assay type: cell-based; conditions: Homo sapiens
Experimental: The Jurkat T cell leukemia line and A-10 rat aortic smooth muscle cells are obtained from the American Type Culture Collection and are cultured in BME containing 10% FBS and 50 μg/mL gentamycin sulfate. […] Both cell lines are maintained in BME containing 10% FBS and 50 μg/mL gentamycin sulfate.
Cell proliferation assays are performed as described by Skehan et al. For Jurkat cells, cultures are treated with the indicated drugs as described in Skehan and total cell numbers are determined by counting the cells in a hemacytometer. The percentage of cells in mitosis are determined by staining with 0.4% Giemsa in PBS followed by rapid washes with PBS. At least 1000 cells per treatment are scored for the presence of mitotic figures and the mitotic index is calculated as the ration of the cells with mitotic figures to the total number of cells counted.
SKVLB1 cells are resistant to natural product anticancer drugs because of their over expression of P-glycoprotein.

SMILES: C=C1[C@@H](C)[C@H]2[C@H](Cc3ccccc3)NC(=O)[C@]23OC(=O)/C=C/[C@H](O)CCC[C@@H](C)C/C=C/[C@H]3[C@@H]1O [Cytochalasin B, cytochalasin B]
Effect on distribution of microtubules and intermediate filaments ([1]; 2 μM cytochalasin B, 24 hours): did not affect the distribution of either microtubules or intermediate filaments
Effect on microfilaments ([1]; 2 μM cytochalasin B, 24 hours, TRITC-phalloidin staining): complete depolymerization of microfilaments

IC50 [2]: 4.2 µM
SMILES: CC[C@]1(O)C[C@@H]2CN(CCc3c([nH]c4ccccc34)[C@@](C(=O)OC)(c3cc4c(cc3OC)N(C)[C@H]3[C@@](O)(C(=O)OC)[C@H](OC(C)=O)[C@]5(CC)C=CCN6CC[C@]43[C@@H]65)C2)C1 [Vinblastine, vinblastine]
Microtubule repolymerization after removal of drug ([1]; then 1 hour in drug-free medium): significant levels of microtubules after 1 hour
Microtubule repolymerization after removal of drug ([1]; then 24 hours in drug-free medium): complete morphological recovery by 24 hour
Effect on microtubules ([1]; 100 nM vinblastine, 24 hours, not pretreated): complete depolymerization of microtubules; also recorded: complete microtubule depolymerization

IC50 [2]: 8 µM
SMILES: CC(=O)O[C@H]1C(=O)[C@@]2(C)[C@H]([C@H](OC(=O)c3ccccc3)[C@]3(O)C[C@H](OC(=O)[C@H](O)[C@@H](NC(=O)c4ccccc4)c4ccccc4)C(C)=C1C3(C)C)[C@]1(OC(C)=O)CO[C@@H]1C[C@@H]2O [Taxol, taxol]
Microtubule organization in taxol-treated cells ([1]; 10 μM taxol, compared with control cells): extensively bundled
Effect of taxol pretreatment on vinblastine-induced microtubule depolymerization ([1]; 3 hours 10 μM taxol before 100 nM vinblastine, 24 hours): prevented microtubule depolymerization in response to vinblastine

melting point: 258 to 260 °C
SMILES: COc1ccc(C[C@H]2NC(=O)/C=C/C[C@@H]([C@H](C)/C=C/c3ccccc3)OC(=O)[C@H](CC(C)C)NC(=O)CC(CC(C)C)NC2=O)cc1Cl (stereo partly shown)
